Target: KsgA (Thermus thermophilus, UniProt Q5SM60)
Test: X-ray crystal structure
Conditions: cofactor-binding site; co-crystallised with 4 mM adenosine and 4 mM AdoMet, 50 °C for 10 min; crystal form KsgA2

Chain of KsgA (Q5SM60 whole entry): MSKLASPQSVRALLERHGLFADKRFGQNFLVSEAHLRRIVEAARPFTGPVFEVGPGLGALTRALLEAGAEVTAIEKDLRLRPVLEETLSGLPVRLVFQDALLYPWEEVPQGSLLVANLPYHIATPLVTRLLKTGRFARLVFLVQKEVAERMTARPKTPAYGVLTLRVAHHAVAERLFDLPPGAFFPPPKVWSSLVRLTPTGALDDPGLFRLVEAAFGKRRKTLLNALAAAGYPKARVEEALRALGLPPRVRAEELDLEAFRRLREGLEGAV

## Nc1ncnc2c1ncn2[C@@H]1O[C@H](CO)[C@@H](O)[C@H]1O [adenosine]
  X-ray crystal structure: these crystals were found to have adenosine in the cofactor-binding site

From article PMC2679894 (Journal of molecular biology, 2009)
